What all share (format): cell-based
The test system of assay [1] is MiaPaCa-2 pancreatic cancer cells. The experiment in a line: Morphological changes by phase-contrast microscopy, MiaPaCa-2. The note with it: MiaPaCa-2, 250 nM, as early as 4 hours after treatment; interpreted as reflecting apoptosis. The procedure: Morphological changes using light microscope. Pancreatic cancer cells grown in 75 cm^2 flasks were treated with different concentrations of LY293111 for different periods of time. They were then viewed by phase-contrast microscopy, and photographs were taken.

Assay [2] concerns MiaPaCa-2 cells. The experiment in a line: TUNEL assay (flow cytometry), MiaPaCa-2. The note with it: control 1.5%. The procedure:
TUNEL assay. Apoptosis was measured by flow cytometry using a terminal deoxynucleotidyl transferase-mediated deoxyuridine triphosphate nick-end labeling (“TUNEL”) assay. Cells were treated with LY293111 for the appropriate period of time, then digested with trypsin-EDTA, washed with ice-cold PBS twice, and fixed in 10% paraformaldehyde on ice for 20 minutes. Cells were then washed with PBS, permeabilized with 70% ethanol for at least 4 hours, washed again with PBS and incubated with 2.5 units of terminal deoxynucleotidyl transferase (TdT enzyme) and 100 pmol Br-dUTP in DNA labeling solution for one hour at 37° C. Cells were then rinsed twice, resuspended in 0.1 ml fluorescein labeled anti-BrdU antibody solution in the dark for 30 minutes. Then 0.5 ml propidium iodide/RNase A solution was added, and the cells analyzed by flow cytometry at 488 nm excitation.
A general note: In flow cytometry, cells or beads pass a laser one at a time.

Assay [3] deals with MiaPaCa-2 pancreatic cancer cells. In words: Cell proliferation assay (cell number, Coulter counter). Particulars: 500 nM for 24, 48, and 72 hours (FIG. 2). Here is the method: (§1) Cell culture. The following pancreatic cancer cell lines were used: MiaPaCa-2 and PANC-1 (poorly-differentiated); Capan-1 and Capan-2 (well-differentiated); and HPAF and AsPC-1 (pleomorphic). These were purchased from American Type Culture Collection (Rockville, Md.). PANC-1 and MiaPaCa-2 were grown in DMEM media; HPAF and AsPC-1 were grown in MEM media; and Capan-1 and Capan-2 were grown in-McCoy's media. Media were supplemented with 10% FBS, and the cells were grown as monolayers in a humidified atmosphere of […] and 5% CO2 at 37° C. The cells were regularly seeded into 75 cm^2 flask with media changed every other day. For experiments, cells were grown to 80% confluence, digested with trypsin-EDTA, and plated either in 12 or 24-well plates at a concentration of 50,000/ml, as appropriate.
Cell proliferation assay. Pancreatic cancer cells were seeded into 24-well microplates and incubated at 37° C. […] At the end of each time period, the cells were trypsinized to produce a single cell suspension, and the cell number in each well was determined using a Zi-Coulter Counter (Luton, Bedfordsire, United Kingdom).

The test system of assay [4] is Bcl-2 in MCF-7 breast cancer cells. The experiment in a line: Bcl-2 expression by western blotting. The note with it: MCF-7, LY293111 500 nM. (In general: Immunoblotting shows a protein as a band on a membrane.)
The test system of assay [5] is HPAF pancreatic cancer cell line. The experiment in a line: [3H]-thymidine incorporation (DNA synthesis), HPAF. Particulars: for proliferation (thymidine incorporation), % control / proliferation, % control (time course): mean±SEM. Here is the method:
as §1
(§2) DNA synthesis by [^3H]-Thymidine incorporation. Cells were plated in 12 or 24-well plates. After reaching 70% confluence, they were incubated in serum-free media for 24 hours, which was then replaced with fresh serum-free media with or without the appropriate concentration of leukotriene B4 receptor antagonist LY293111 (62.5-1000 nM), LTB4 (100-400 nM), or both. After the appropriate period of culture, cellular DNA synthesis was assayed by adding 0.5 μCi/well of [^3H]-methyl-thymidine and incubating for another 2 hours. Then, the cells were washed twice with PBS, fixed with 10% trichloroacetic acid (“TCA”) for 30 minutes, and solubilized by adding 0.4 M NaOH to each well. Radioactivity, indicating incorporation of ^3H-thymidine into DNA, was measured by adding a scintillation cocktail and counting on a scintillation counter (LKB RackBeta, Wallac, Turku, Finland)
In general terms: Uptake of a labelled nucleoside into DNA is a usual measure of proliferation.

The test system of assay [6] is Capan-1 pancreatic cancer cell line. In words: [3H]-thymidine incorporation (DNA synthesis), Capan-1. The note with it: mean±SEM; for proliferation (thymidine incorporation), % control: 24 hours. Here is the method: as §1, §2

Regarding `CCCc1c(OCCCOc2cc(O)c(-c3ccc(F)cc3)cc2CC)cccc1Oc1ccccc1C(=O)O` [LY293111, 2-(2-propyl-3-(3-(2-ethyl-4-(4-fluorophenyl)-5-hydroxyphenoxy)propoxy)-phenoxy)benzoic acid], in assay [1], the “morphological changes (phase-contrast microscopy)” value is on record as “marked morphological changes”. The “apoptosis (TUNEL)” value in assay [2] (MiaPaCa-2, 250 nM LY293111 for 24 hours) worked out at 12.6%; in assay [2] (MiaPaCa-2, 500 nM LY293111 for 24 hours), 18.6%. Also, the “effect on cell number” value in assay [3] is recorded as “inhibition”. In assay [4], the “Bcl-2 expression (western blot)” value is “inhibited expression”. This molecule also had a decrease of proliferation in assay [5] (HPAF (FIG. 6B), LY293111 250 nM, 24 hours) of 50%. Moreover, the “proliferation with combination of LTB4 and LY293111” value in assay [5] (HPAF, 250 nM LY293111 + 100 nM LTB4, 24 hours) is “restored to almost the control level”. In addition, the “proliferation (thymidine incorporation), % control” value in assay [5] (HPAF, LY293111 62.5 nM, 24 hours) is given as 103.6 ± 21.8 % control; in assay [5] (HPAF, LY293111 125 nM, 24 hours), 97.6 ± 24.5 % control; in assay [5] (HPAF, LY293111 250 nM, 24 hours), 49.3 ± 9.0 % control; in assay [5] (HPAF, LY293111 500 nM, 24 hours) it was 10.3 ± 3.0 % control; in assay [5] (HPAF, LY293111 1000 nM, 24 hours), 2.3 ± 1.4 % control; in assay [6] (Capan-1, LY293111 62.5 nM), 99.1 ± 4.8 % control. Further, the “proliferation (thymidine incorporation), % control” value in assay [6] (Capan-1, LY293111 125 nM) is listed as 56.9 ± 4.9 % control; in assay [6] (Capan-1, LY293111 250 nM) it was 16.4 ± 2.0 % control; in assay [6] (Capan-1, LY293111 500 nM), 15.7 ± 3.4 % control; in assay [6] (Capan-1, LY293111 1000 nM) it was 0.2 ± 0.3 % control. The “proliferation, % control (time course)” value in assay [5] (HPAF, LY293111 500 nM, 6 h) was 67.5 ± 11.6 % control; in assay [5] (HPAF, LY293111 500 nM, 12 h) it was 35.7 ± 8.9 % control; in assay [5] (HPAF, LY293111 500 nM, 24 h) it was 12.4 ± 3.3 % control; in assay [6] (Capan-1, LY293111 500 nM, 6 h), 70.5 ± 8.7 % control; in assay [6] (Capan-1, LY293111 500 nM, 12 h), 44.5 ± 10.2 % control; in assay [6] (Capan-1, LY293111 500 nM, 24 h), 15.7 ± 3.4 % control.

For the origin of these results see US20040053962A1, “Methods for inhibiting proliferation and inducing apoptosis in cancer cells” (priority 2003, published 2004).
